Active and inactive are the calls of the source. How the calls were made is not given here.

This experiment concerns the target Pyruvate kinase (Leishmania mexicana) (UniProt Q27686). In words: Activation of Leishmania mexicana pyruvate kinase by quantitative high throughput screening assay.
Turning to `O=C1CN(S(=O)(=O)c2c(F)cccc2F)CCN1S(=O)(=O)c1ccc2c(c1)OCCO2`, the outcome was inactive.

Consider `O=S(=O)(c1cccc(F)c1)N1CCN(S(=O)(=O)c2ccc3c(c2)OCCO3)CC1`, for which the outcome was inactive.

As to `COc1cccc(S(=O)(=O)N2CCN(S(=O)(=O)c3ccc4c(c3)OCCO4)CC2)c1`, the result was inactive.

Turning to `C[C@@H]1CN(S(=O)(=O)c2ccc3c(c2)OCCO3)CCN1S(=O)(=O)c1c(F)cccc1F`, the outcome was inactive.

As for `O=S(=O)(NCCCCNS(=O)(=O)c1c(F)cccc1F)c1ccc2c(c1)OCCO2`, the result was inactive.

`O=S(=O)(c1ccc(Cl)cc1)N1CCN(S(=O)(=O)c2ccc3c(c2)OCCO3)CC1`: the outcome was inactive.

Turning to `CC1(C)CCc2cc(S(=O)(=O)N3CCN(S(=O)(=O)c4c(F)cccc4F)CC3)ccc2O1`, the result was inactive.

In the case of `O=S(=O)(c1ccc2c(c1)OCCO2)C1CCN(S(=O)(=O)c2c(F)cccc2F)CC1`, the result was inactive.

In the case of `O=S(=O)(NC1CCN(S(=O)(=O)c2ccc3c(c2)OCCO3)CC1)c1c(F)cccc1F`, the outcome was inactive.

Take `O=S(=O)(c1ccc2c(c1)OCO2)N1CCN(S(=O)(=O)c2c(F)cccc2F)CC1`: the result was inactive.

For `C[C@H]1CN(S(=O)(=O)c2ccc3c(c2)OCCO3)CCN1S(=O)(=O)c1c(F)cccc1F`, the result was inactive.

Take `O=S(=O)(c1ccc2c(c1)OCCO2)N1CCN(S(=O)(=O)c2c(F)ccc(O)c2F)CC1`: the outcome was inactive.

Turning to `N#Cc1ccc(S(=O)(=O)N2CCN(S(=O)(=O)c3ccc4c(c3)OCCO4)CC2)cc1`, the outcome was inactive.

`O=S(=O)(c1c(F)cccc1F)N1CCN(S(=O)(=O)c2c(F)cccc2F)CC1`: the result was inactive.

For `O=S(=O)(N[C@H]1CC[C@@H](NS(=O)(=O)c2c(F)cccc2F)CC1)c1ccc2c(c1)OCCO2`, the outcome was inactive.

Take `O=S(=O)(NCCCNS(=O)(=O)c1c(F)cccc1F)c1ccc2c(c1)OCCO2`: the outcome was inactive.

With `O=S(=O)(N[C@H]1CC[C@H](NS(=O)(=O)c2c(F)cccc2F)CC1)c1ccc2c(c1)OCCO2`, the outcome was inactive.

Regarding `O=C(c1ccc2c(c1)OCCO2)N1CCN(S(=O)(=O)c2c(F)cccc2F)CC1`, the result was inactive.

In the case of `O=S(=O)(NCCCCCNS(=O)(=O)c1c(F)cccc1F)c1ccc2c(c1)OCCO2`, the outcome was inactive.

`COc1cc(F)c(S(=O)(=O)N2CCN(S(=O)(=O)c3cccc(N)c3)CC2)c(F)c1`: the outcome was inactive.

`O=S(=O)(c1ccc2ccccc2c1)N1CCN(S(=O)(=O)c2c(F)cccc2F)CC1`: the result was inactive.

As for `O=S(=O)(c1ccc2c(c1)OCCCO2)N1CCN(S(=O)(=O)c2c(F)cccc2F)CC1`, the outcome was inactive.

In the case of `O=S(=O)(c1ccc2c(c1)OCCO2)N1CCN(S(=O)(=O)c2ccccn2)CC1`, the result was inactive.

Take `O=S(=O)(NCC1CN(S(=O)(=O)c2c(F)cccc2F)C1)c1ccc2c(c1)OCCO2`: the result was inactive.

Turning to `O=S(=O)(c1ccc2c(c1)OCCO2)N1CCN(S(=O)(=O)c2cc(F)c(F)cc2F)CC1`, the result was inactive.

Regarding `C[C@@H]1CN(S(=O)(=O)c2c(F)cccc2F)CCN1S(=O)(=O)c1ccc2c(c1)OCCO2`, the outcome was inactive.

Consider `COc1ccc(S(=O)(=O)N2CCN(S(=O)(=O)c3ccc4c(c3)OCCO4)CC2)cc1`, for which the outcome was inactive.

Regarding `O=S(=O)(c1cccc(C(F)(F)F)c1)N1CCN(S(=O)(=O)c2ccc3c(c2)OCCO3)CC1`, the outcome was inactive.

With `Nc1cccc(S(=O)(=O)N2CCN(S(=O)(=O)c3ccc4c(c3)OCCO4)CC2)c1`, the outcome was inactive.

Consider `O=S(=O)(NC1CCN(S(=O)(=O)c2c(F)cccc2F)C1)c1ccc2c(c1)OCCO2` (centres undefined), for which the outcome was inactive.

On to `O=S(=O)(c1c(F)cccc1F)C1CCN(S(=O)(=O)c2ccc3c(c2)OCCO3)CC1`, for which the outcome was inactive.

For the molecule `Nc1cccc(S(=O)(=O)N2CCCN(S(=O)(=O)c3ccc4c(c3)OCCO4)CC2)c1`, the result was inactive.

`COc1cc(F)c(S(=O)(=O)N2CCCN(S(=O)(=O)c3cccc(N)c3)CC2)c(F)c1`: the outcome was inactive.

As to `Nc1cccc(S(=O)(=O)N2CCN(S(=O)(=O)c3c(F)cccc3F)CC2)c1`, the outcome was inactive.

`O=S(=O)(c1ccc2c(c1)OCCO2)N1CCCN(S(=O)(=O)c2c(F)cccc2F)CC1`: the outcome was inactive.

In the case of `COc1cc(F)c(S(=O)(=O)N2CCN(S(=O)(=O)c3ccc4c(c3)OCCO4)CC2)c(F)c1`, the outcome was inactive.

With `O=S(=O)(c1ccc(F)cc1)N1CCN(S(=O)(=O)c2ccc3c(c2)OCCO3)CC1`, the result was inactive.

Regarding `O=S(=O)(NC1CCN(S(=O)(=O)c2c(F)cccc2F)CC1)c1ccc2c(c1)OCCO2`, the result was inactive.

As for `COc1ccc(S(=O)(=O)N2CCN(S(=O)(=O)c3c(F)cccc3F)CC2)cc1`, the outcome was inactive.

`O=C1CN(S(=O)(=O)c2ccc3c(c2)OCCO3)CCN1S(=O)(=O)c1c(F)cccc1F`: the outcome was inactive.

For `O=S(=O)(NCCCCCCNS(=O)(=O)c1c(F)cccc1F)c1ccc2c(c1)OCCO2`, the outcome was inactive.

As to `O=S(=O)(NC1CCN(S(=O)(=O)c2ccc3c(c2)OCCO3)C1)c1c(F)cccc1F` (centres undefined), the outcome was inactive.

On to `O=S(=O)(c1ccc2c(c1)OCCO2)N1CCN(S(=O)(=O)c2ccc3c(c2)OCCO3)CC1`, for which the result was inactive.

Regarding `O=C(c1c(F)cccc1F)N1CCN(S(=O)(=O)c2ccc3c(c2)OCCO3)CC1`, the outcome was inactive.

In the case of `O=S(=O)(NCCNS(=O)(=O)c1c(F)cccc1F)c1ccc2c(c1)OCCO2`, the outcome was inactive.

As to `C[C@H]1CN(S(=O)(=O)c2c(F)cccc2F)CCN1S(=O)(=O)c1ccc2c(c1)OCCO2`, the outcome was inactive.

`O=S(=O)(c1ccc2c(c1)OCCO2)N1CCN(S(=O)(=O)c2cccc[n+]2[O-])CC1`: the outcome was inactive.

`O=S(=O)(c1ccc2c(c1)OCCO2)N1CCN(S(=O)(=O)c2ccc(F)cc2F)CC1`: the result was inactive.

In the case of `O=S(=O)(c1ccc2c(c1)OCCO2)N1CCN(S(=O)(=O)c2ccccc2F)CC1`, the result was inactive.

As for `O=S(=O)(c1ccccc1)N1CCN(S(=O)(=O)c2ccc3c(c2)OCCO3)CC1`, the outcome was inactive.

Regarding `COc1ccc(S(=O)(=O)N2CCN(S(=O)(=O)c3ccc(OC)cc3)CC2)cc1`, the result was inactive.

Consider `O=S(=O)(NCC1CN(S(=O)(=O)c2ccc3c(c2)OCCO3)C1)c1c(F)cccc1F`, for which the result was inactive.

In the case of `O=S(=O)(c1ccc2c(c1)OCCO2)N1CCN(S(=O)(=O)c2c(F)cccc2F)CC1`, the result was inactive.

In the case of `Cn1ccc2cc(S(=O)(=O)N3CCN(S(=O)(=O)c4c(F)cccc4F)CC3)ccc21`, the outcome was inactive.

(Values after ChEMBL document CHEMBL1156261, “Evaluation of substituted N,N'-diarylsulfonamides as activators of the tumor cell specific M2 isoform of pyruvate kinase” (J Med Chem, 2010).)
